According to patent US12528777B2, “Quinazolinones derivatives for treatment of non-alcoholic fatty liver disease, preparation and use thereof” (Council of Scientific and Industrial Research, priority 2020, dated 2026):

Tests used:
HepG2 cells = assay: Confocal microscopy: lipid droplets in oleate induced HepG2 cells; type: cell-based; design: key to Reduction in Lipid Droplets: + = slight or in insignificant; ++ = Moderate; +++ and ++++ = active; +++ and ++++ = active; +++++ = very active; settings: for Reduction in Lipid Droplets: oleate induced HepG2 cells, score; for Number of lipid droplets: HepG2 cells, 250 μM oleate induction
Procedure: To select the compounds capable of inhibiting the ubiquitination of ATGL by COP1 by targeting the VP motif, confocal microscopy was performed with the provided molecules. If the compound was effective in inhibiting the interaction, there would be a reduction in the number of fat droplets in the cells after treatment. […] With this rationale in mind, HepG2 cells were induced to accumulate lipid droplets after treatment with 250 µM of oleate and 10 μM of the specific compounds were added. The potential of the compounds to bring about a reduction in the number of fat droplets was then checked by comparison with oleate induced cells by counting number of droplets of approximately 20 cells from each treatment and calculating the average number of lipid droplets of each cell. The selected compounds were then subjected to dose dependent treatments and the ones which could maintain its potency to reduce fat droplets at lower doses were then selected for western blot analysis. The compound which could reduce the number of fat droplets in the cells are expected to raise the levels of ATGL since they are likely to deter COP1 from ubiquitinating ATGL. This increase will be visible only in the protein level and gene expression is likely to remain unchanged since ubiquitination is a […] modification. Thus, western blot was performed to check ATGL levels in the cells with the selected molecules.
HepG2 cells were plated in confocal dishes (SPL, Genetix Biotech Asia Pvt. Ltd.). The cells were allowed to adhere and divide for 16 hours. 10 μM for initial screening and 10 nM, 20 nM, 50 nM, 100 nM, 200 nM, 500 nM, 1 μM and 5 μM for dose dependent assays of the compounds 9 and 107 were dissolved in DMSO and added to the cells. 250 μM of oleate was used for induction. BSA (Sigma Aldrich) was used as a negative control. Post 24 hours of treatment, media was decanted from the cells and washed with 1×PBS solution to remove any remnant. 200 μl of staining solution containing 200 ng/ml BODIPY (Invitrogen) and 25 µg/ml HOECKST342 (Invitrogen) were added to the cells and incubated at 37° C. for 30 minutes under dark conditions. Cells were washed 3 times with 1×PBS to remove excess stain. FLUOVIEW FV10i (Olympus) was used to visualise the cells.

ATGL = assay: Western blot of ATGL level in HepG2 cells; type: cell-based; design: key to Increase in ATGL level: + = slight or in insignificant; ++ = Moderate; +++ and ++++ = active; +++ and ++++ = active; +++++ = very active; settings: western blot; for Increase in ATGL level: HepG2 cells, score; for ATGL level in HepG2 cells: 24 hours, 10 μM screening or 50 nM-5 μM dose dependent
Procedure, shortened: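 HepG2 cells were treated with compound 24 h (10 μM screen; 50 nM–5 μM dose series) and lysed. 30 μg protein was western blotted for ATGL, with actin as loading reference. ATGL increase was expressed as percent of the 1.6-fold siCOP1 maximum and plotted against log concentration for EC50.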

Plasma stability assay = type: in vitro ADME, human; settings: for Mean % remaining at 2 hrs in human Plasma: 1 μM, 37° C., 120 min, LC-MS/MS
Procedure: 1 mM Stock of test compound was prepared from 10 mM initial stock solution of compounds by diluting 10 μL of 10 mM stock with 90 μL of DMSO. Then 10 μL of 1 mM stock was diluted with 90 µL of DMSO to give 100 μM concentration. The frozen plasma was thawed at room temperature and centrifuged at 1400 rpm at 4° C., for 15 minutes. Approximately […] of the clear supernatant fraction was transferred to a separate tube and was used for the assay. Final working stock of 1 μM was prepared by diluting 3 μL of 100 μM with 297 μL of plasma. Plasma containing the test compound was incubated for 120 min at 37° C. in shaker with 500 rpm. 50 μL of aliquot of sample at 0, 15, 30, 60 and 120 minutes were precipitated with 150 μL of acetonitrile containing internal standard and centrifuged at 4000 rpm at 4° C. for 20 minutes. 120 μL of supernatant was diluted with 120 μL of water and analyzed by LC-MS/MS.

[1] = Lipophilicity assay (octanol/buffer); type: physicochemical
Procedure: 1.56 g NaH2PO4·2H2O was dissolved in 0.5 L water in a 1 L beaker. After adjusting pH to 7.4 using NaOH solution, the volume was made up to 1 L. Equal volumes of sodium phosphate buffer (10 mM, pH 7.4) and n-octanol were added to a separation funnel and mixed thoroughly by shaking and inverting the funnel several times. The two layers were allowed to separate for overnight and then dispensed in two separate glass bottles. 10 mM stock solution was prepared in 100% DMSO and stored at 4° C. 495 μL of organic phase (1-octanol) was added to each well of a 2 mL deep well plate, followed by 495 μL of buffer and 10 μL of test compound was added. The plate was incubated for 3 hr at room temperature on a plate shaker at 500 rpm. After incubation, the samples were allowed to equilibrate for 20 min and then centrifuged at 4000 rpm for 30 min for complete phase separation and analysed by LC-UV.
Log D=Log (area of octanol/area of buffer)

[2] = n-octanol / 10 mM sodium phosphate buffer pH 7.4, LC-UV

| Compound | Reduction in Lipid Droplets (HepG2 cells) | Increase in ATGL level (ATGL) | Number of lipid droplets (HepG2 cells) | ATGL level in HepG2 cells (ATGL) | also measured |
| --- | --- | --- | --- | --- | --- |
| CCOCCn1cnc2ccc(NC(=O)Nc3ccc(C(C)=O)cc3)cc2c1=O [Compound 94, 1-(4-acetylphenyl)-3-(3-(2-ethoxyethyl)-4-oxo-3,4-dihydroquinazolin-6-yl)urea] | ++ | + | – | – | – |
| COc1cccc(-n2cnc3ccc(NC(=O)Nc4cccc(C(C)=O)c4)cc3c2=O)c1 [Compound 103, 1-(3-acetylphenyl)-3-(3-(3-methoxyphenyl)-4-oxo-3,4-dihydroquinazolin-6-yl)urea] | + | + | reduction in lipid droplets | some sort of increase in ATGL level | – |
| COCCn1c(C(C)C)nc2ccc(NC(=O)Nc3cccc(C(C)=O)c3)cc2c1=O [Compound 111, 1-(3-acetylphenyl)-3-(2-isopropyl-3-(2-methoxyethyl)-4-oxo-3,4-dihydroquinazolin-6-yl)urea] | ++ | +++ | – | – | – |
| COCCn1c(-c2ccc(F)cc2)nc2ccc(NC(=O)Nc3cccc(C(C)=O)c3)cc2c1=O [Compound 115, 1-(3-acetylphenyl)-3-(2-(4-fluorophenyl)-3-(2-methoxyethyl)-4-oxo-3,4-dihydroquinazolin-6-yl)urea] | + | + | – | – | – |
| COCCn1c(-c2ccc(OC)cc2)nc2ccc(NC(=O)Nc3cccc(C(C)=O)c3)cc2c1=O [Compound 119, 1-(3-acetylphenyl)-3-(3-(2-methoxyethyl)-2-(4-methoxyphenyl)-4-oxo-3,4-dihydroquinazolin-6-yl)urea] | + | + | – | – | – |
| COCCn1c(C2CCCCC2)nc2ccc(NC(=O)Nc3cccc(C(C)=O)c3)cc2c1=O [Compound 123, 1-(3-acetylphenyl)-3-(2-cyclohexyl-3-(2-methoxyethyl)-4-oxo-3,4-dihydroquinazolin-6-yl)urea] | +++ | ++++ | – | increased ATGL level | Mean % remaining at 2 hrs in human Plasma (Plasma stability assay): 48.5%; Plasma stability (Plasma stability assay; human plasma, after 2 hours, with respect to Propantheline): good plasma stability; logD [1, 2]: 0.84; Lipophilicity class from Log D ([1]; pH 7.4): hydrophilic |
| CC(=O)c1cccc(NC(=O)Nc2ccc3ncn(CCN4CCOCC4)c(=O)c3c2)c1 [Compound 135, 1-(3-acetylphenyl)-3-(3-(2-morpholinoethyl)-4-oxo-3,4-dihydroquinazolin-6-yl)urea] | ++ | +++ | reduction in lipid droplets | some sort of increase in ATGL level | – |
| CC(=O)c1cccc(NC(=O)Nc2ccc3ncn(CCN(C)C)c(=O)c3c2)c1 [Compound 143, 1-(3-acetylphenyl)-3-(3-(2-(dimethylamino)ethyl)-4-oxo-3,4-dihydroquinazolin-6-yl)urea] | +++ | ++++ | reduction in lipid droplets | some sort of increase in ATGL level | – |
| CC(=O)c1cccc(NC(=O)Nc2ccc3ncn(CCN4CCCCC4)c(=O)c3c2)c1 [Compound 147, 1-(3-acetylphenyl)-3-(4-oxo-3-(2-(piperidin-1-yl)ethyl)-3,4-dihydroquinazolin-6-yl)urea] | ++ | +++ | reduction in lipid droplets | some sort of increase in ATGL level | – |
| CC(=O)c1cccc(NC(=O)Nc2ccc3ncn(-c4cccnc4)c(=O)c3c2)c1 [Compound 155, 1-(3-acetylphenyl)-3-(4-oxo-3-(pyridin-3-yl)-3,4-dihydroquinazolin-6-yl)urea] | +++ | ++ | reduction in lipid droplets | some sort of increase in ATGL level | – |
| CC(=O)c1cccc(NC(=O)Nc2ccc3ncn(-c4ccccn4)c(=O)c3c2)c1 [Compound 159, 1-(3-acetylphenyl)-3-(4-oxo-3-(pyridin-2-yl)-3,4-dihydroquinazolin-6-yl)urea] | – | + | reduction in lipid droplets | some sort of increase in ATGL level | – |
| CC(=O)c1cccc(NC(=O)Nc2ccc3ncn(C4CCN(C)CC4)c(=O)c3c2)c1 [Compound 163, 1-(3-acetylphenyl)-3-(3-(1-methylpiperidin-4-yl)-4-oxo-3,4-dihydroquinazolin-6-yl)urea] | ++ | + | reduction in lipid droplets | some sort of increase in ATGL level | – |
| CCCCn1cnc2ccc(NC(=O)Nc3cccc(C(C)=O)c3)cc2c1=O [Compound 175, 1-(3-acetylphenyl)-3-(3-butyl-4-oxo-3,4-dihydroquinazolin-6-yl)urea] | + | + | reduced lipid droplets | did not increase ATGL level | – |
| COCCn1cnc2cc(NC(=O)Nc3cccc(C(C)=O)c3)ccc2c1=O [Compound 192, 1-(3-acetylphenyl)-3-(3-(2-methoxyethyl)-4-oxo-3,4-dihydroquinazolin-7-yl)urea] | ++ | +++ | – | – | – |
| COCCn1cnc2cc(NC(=O)Nc3ccc(C(C)=O)cc3)ccc2c1=O [Compound 193, 1-(4-acetylphenyl)-3-(3-(2-methoxyethyl)-4-oxo-3,4-dihydroquinazolin-7-yl)urea] | + | + | – | – | – |
| COCCc1ccc(OCC(O)CNC(C)C)cc1 (centres unmarked) [Metroprolol, reference compound] | – | – | – | – | LogD @ pH 7.4 [1, 2]: −0.09 |
| CC(C)[N+](C)(CCOC(=O)C1c2ccccc2Oc2ccccc21)C(C)C [Propantheline, reference compound] | – | – | – | – | Mean % remaining at 2 hrs in human Plasma (Plasma stability assay): 1.7% |
| O=c1c(O)c(-c2ccc(O)c(O)c2)oc2cc(O)cc(O)c12 [Quercetin, reference compound] | – | – | – | – | LogD @ pH 7.4 [1, 2]: 2.81 |
